ChEMBL document CHEMBL3808279, “Sequential one-pot synthesis of bis(indolyl)glyoxylamides: Evaluation of antibacterial and anticancer activities” (Bioorg Med Chem Lett, 2016)
pIC50: −log10 of the molar value. Converted amounts (≈) assume the structure as drawn. The source made the active and inactive calls. No cut-off for these calls is given here.

Key:
Escherichia coli [1] = experiment: Antibacterial activity against Escherichia coli after 18 to 24 hrs by microbroth dilution method; type: functional; settings: for MIC: Escherichia coli
Pseudomonas putida [2] = experiment: Antibacterial activity against Pseudomonas putida after 18 to 24 hrs by microbroth dilution method; type: functional; settings: for MIC: Pseudomonas putida
Klebsiella pneumoniae = experiment: Antibacterial activity against Klebsiella pneumoniae after 18 to 24 hrs by microbroth dilution method; type: functional; settings: for MIC: Klebsiella pneumoniae
Bacillus subtilis [3] = experiment: Antibacterial activity against Bacillus subtilis after 18 to 24 hrs by microbroth dilution method; type: functional; settings: for MIC: Bacillus subtilis
Staphylococcus aureus [4] = experiment: Antibacterial activity against Staphylococcus aureus after 18 to 24 hrs by microbroth dilution method; type: functional; settings: for MIC: Staphylococcus aureus
MDA-MB-231 = experiment: Cytotoxicity against human MDA-MB-231 cells after 48 hrs by MTT assay; type: functional, cell-based; settings: MDA-MB-231, 48 h
[5] = Cytotoxicity against human PC3 cells after 48 hrs by MTT assay; type: functional, cell-based; settings: PC-3, 48 h
HeLa = experiment: Cytotoxicity against human HeLa cells after 48 hrs by MTT assay; type: functional, cell-based
[6] = Cytotoxicity against human C4-2 cells after 48 hrs by MTT assay; type: functional, cell-based; settings: LNCaP C4-2, 48 h
[7] = Cytotoxicity against human HEK293T cells after 48 hrs by MTT assay; type: cell-based; settings: HEK-293T
[8] = Cytotoxicity against human BxPC3 cells after 48 hrs by MTT assay; type: functional, cell-based; settings: BXPC-3, 48 h
PC-3 = experiment: Induction of apoptosis in human PC3 cells assessed as increase in cleaved PARP1 level after 48 hrs by immunoblot analysis; type: functional, cell-based
Escherichia coli [9] = experiment: Bactericidal activity against Escherichia coli at 3 times MIC after 2 hrs by time-kill analysis; type: functional
Pseudomonas putida [10] = experiment: Bactericidal activity against Pseudomonas putida at 3 times MIC after 2 hrs by time-kill analysis; type: functional
Bacillus subtilis [11] = experiment: Bactericidal activity against Bacillus subtilis at 3 times MIC after 2 hrs by time-kill analysis; type: functional
Staphylococcus aureus [12] = experiment: Bactericidal activity against Staphylococcus aureus at 3 times MIC after 2 hrs by time-kill analysis; type: functional
[13] = Stability of compound at pH 4.5 up to 48 hrs by HPLC analysis; type: physicochemical; settings: buffer, pH 4.5, 48 h
[14] = Stability of compound at pH 7.4 up to 48 hrs by HPLC analysis; type: physicochemical; settings: buffer, pH 7.4, 48 h
[15] = Aqueous solubility of compound after 12 hrs by shake-flask method; type: physicochemical; settings: water
Escherichia coli [16] = experiment: Bactericidal activity against Escherichia coli assessed as maximum bactericidal reduction at 3 times MIC after 3 hrs by time-kill analysis; type: functional, organism-based
Pseudomonas putida [17] = experiment: Bactericidal activity against Pseudomonas putida assessed as maximum bactericidal reduction at 3 times MIC after 3 hrs by time-kill analysis; type: functional, organism-based
Escherichia coli [18] = experiment: Antimicrobial activity against Escherichia coli; type: functional
Bacillus subtilis [19] = experiment: Antimicrobial activity against Bacillus subtilis; type: functional
Pseudomonas aeruginosa = experiment: Antimicrobial activity against Pseudomonas aeruginosa; type: functional
P388 = experiment: Cytotoxicity against mouse P388 cells; type: functional, cell-based
A549 = experiment: Cytotoxicity against human A549 cells; type: functional, cell-based
Micrococcus luteus = experiment: Antimicrobial activity against Sarcina lutea; type: functional
Corynebacterium xerosis = experiment: Antimicrobial activity against Corynebacterium xerosis; type: functional
[20] = molecular target: Cyclin-dependent kinase 4 (Homo sapiens, UniProt P11802); experiment: Inhibition of CDK4 (unknown origin)
Sequence of Cyclin-dependent kinase 4 (P11802 whole entry): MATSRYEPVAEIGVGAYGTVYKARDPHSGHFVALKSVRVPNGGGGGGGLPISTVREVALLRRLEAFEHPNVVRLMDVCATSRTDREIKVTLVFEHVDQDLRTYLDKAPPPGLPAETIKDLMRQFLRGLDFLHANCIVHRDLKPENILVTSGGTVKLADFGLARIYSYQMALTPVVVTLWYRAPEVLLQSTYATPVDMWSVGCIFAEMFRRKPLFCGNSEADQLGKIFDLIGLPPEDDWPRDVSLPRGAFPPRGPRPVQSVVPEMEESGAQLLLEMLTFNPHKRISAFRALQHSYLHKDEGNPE

[21] = molecular target: Receptor tyrosine-protein kinase erbB-2 (Homo sapiens, UniProt P04626); experiment: Inhibition of c-erbB2 (unknown origin)
Sequence of Receptor tyrosine-protein kinase erbB-2 (P04626 whole entry): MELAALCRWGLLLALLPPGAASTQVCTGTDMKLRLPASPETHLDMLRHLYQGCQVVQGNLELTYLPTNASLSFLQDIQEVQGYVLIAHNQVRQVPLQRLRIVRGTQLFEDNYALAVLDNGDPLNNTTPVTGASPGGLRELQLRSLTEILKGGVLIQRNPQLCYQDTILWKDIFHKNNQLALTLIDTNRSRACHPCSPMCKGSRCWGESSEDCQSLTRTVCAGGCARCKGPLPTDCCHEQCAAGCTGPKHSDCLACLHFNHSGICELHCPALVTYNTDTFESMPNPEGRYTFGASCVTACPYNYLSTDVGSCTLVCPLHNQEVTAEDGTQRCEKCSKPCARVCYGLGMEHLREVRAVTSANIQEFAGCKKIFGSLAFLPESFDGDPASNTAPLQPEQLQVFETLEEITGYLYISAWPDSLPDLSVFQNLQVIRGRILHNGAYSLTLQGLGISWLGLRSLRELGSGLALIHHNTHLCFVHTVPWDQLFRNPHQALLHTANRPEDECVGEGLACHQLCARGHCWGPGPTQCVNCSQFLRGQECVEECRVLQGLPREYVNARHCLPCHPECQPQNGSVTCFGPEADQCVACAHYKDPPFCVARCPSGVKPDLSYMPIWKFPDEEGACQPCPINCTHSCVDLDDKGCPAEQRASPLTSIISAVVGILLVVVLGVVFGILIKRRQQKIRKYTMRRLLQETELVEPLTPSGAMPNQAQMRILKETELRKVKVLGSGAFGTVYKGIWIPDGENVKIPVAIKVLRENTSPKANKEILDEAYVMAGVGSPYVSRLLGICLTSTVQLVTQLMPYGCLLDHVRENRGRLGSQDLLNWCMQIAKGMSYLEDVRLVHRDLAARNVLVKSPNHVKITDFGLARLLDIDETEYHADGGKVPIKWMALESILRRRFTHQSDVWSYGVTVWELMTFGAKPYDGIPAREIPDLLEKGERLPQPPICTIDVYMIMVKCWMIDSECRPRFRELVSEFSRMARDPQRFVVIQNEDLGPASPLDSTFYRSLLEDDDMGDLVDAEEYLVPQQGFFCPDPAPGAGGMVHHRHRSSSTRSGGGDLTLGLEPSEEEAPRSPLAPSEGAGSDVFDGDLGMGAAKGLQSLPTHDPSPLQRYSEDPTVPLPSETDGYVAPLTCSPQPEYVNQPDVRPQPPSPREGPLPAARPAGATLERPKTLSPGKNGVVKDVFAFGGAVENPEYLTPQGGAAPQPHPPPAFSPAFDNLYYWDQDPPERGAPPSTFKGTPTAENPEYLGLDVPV

| SMILES | inhibition zone (IZ) (Escherichia coli [1]) [mm] | MIC (Escherichia coli [1]) [µg/mL] | inhibition zone (IZ) (Pseudomonas putida [2]) [mm] | MIC (Pseudomonas putida [2]) [µg/mL] | inhibition zone (IZ) (Klebsiella pneumoniae) [mm] | MIC (Klebsiella pneumoniae) [µg/mL] | inhibition zone (IZ) (Bacillus subtilis [3]) [mm] | MIC (Bacillus subtilis [3]) [µg/mL] | inhibition zone (IZ) (Staphylococcus aureus [4]) [mm] | MIC (Staphylococcus aureus [4]) [µg/mL] | pIC50 (MDA-MB-231) | pIC50 [5] | pIC50 (HeLa) | pIC50 [6] | pIC50 [7] | pIC50 [8] | other results |
| --- | --- | --- | --- | --- | --- | --- | --- | --- | --- | --- | --- | --- | --- | --- | --- | --- | --- |
| O=C(NCCc1c[nH]c2ccccc12)C(=O)c1cn(Cc2ccc(F)cc2)c2ccccc12 | 15 | 100 (≈ 228 µM) | 15 | 100 (≈ 228 µM) | 13 | > 100 | 12 | > 100 | 14 | > 100 | < 4.00 | < 4.00 | < 4.00 | < 4.00 | < 4.00 | < 4.00 |  |
| O=C(NCCc1c[nH]c2ccccc12)C(=O)c1c[nH]c2ccc(Br)cc12 | 16 | 50 (≈ 122 µM) | 14 | 100 (≈ 244 µM) | 15 | 100 (≈ 244 µM) | 14 | 100 (≈ 244 µM) | 15 | > 100 | < 4.00 | < 4.00 | < 4.00 | < 4.00 | < 4.00 | < 4.00 |  |
| O=C(NCCc1c[nH]c2ccccc12)C(=O)c1c[nH]c2cc(F)ccc12 | 15 | 100 (≈ 286 µM) | 14 | > 100 | 14 | > 50 |  |  |  |  | 4.68 | 4.62 | 4.65 | 4.34 | 4.16 | 4.52 | Activity (PC-3): Active |
| O=C(NCCc1c[nH]c2ccccc12)C(=O)c1c[nH]c2ccc(F)cc12 | 20 | 12.5 (≈ 35.8 µM) | 18 | 12.5 (≈ 35.8 µM) | 18 | 12.5 (≈ 35.8 µM) | 18 | > 12.5 | 17 | 25 (≈ 71.6 µM) | < 4.00 | < 4.00 | < 4.00 | < 4.00 | < 4.00 | < 4.00 | Activity (Escherichia coli [9]): 80%; Activity (Pseudomonas putida [10]): 80%; Activity (Bacillus subtilis [11]): >80%; Activity (Staphylococcus aureus [12]): >65%; Stability [13]: Stable; Stability [14]: Stable; solubility thermodynamic at 12 h [15]: 0.3 µg/mL (≈ 0.859 µM); Activity (Escherichia coli [16]): Active; Activity (Pseudomonas putida [17]): Active |
| O=C(N[C@H](CO)[C@H](O)c1ccc([N+](=O)[O-])cc1)C(Cl)Cl [CHLORAMPHENICOL] | 22 |  | 21 |  | 20 |  | 22 |  | 21 |  |  |  |  |  |  |  |  |
| O=C(NCCc1c[nH]c2ccccc12)C(=O)c1cn(Cc2ccc(Cl)cc2)c2ccc(Br)cc12 | 15 | 100 (≈ 187 µM) | 14 | > 100 | 14 | > 50 | 14 | 100 (≈ 187 µM) | 13 | 100 (≈ 187 µM) | < 4.00 | < 4.00 | < 4.00 | < 4.00 | < 4.00 | < 4.00 |  |
| COc1ccc2c(C(=O)C(=O)NCCc3c[nH]c4ccccc34)cn(Cc3ccc(Cl)cc3)c2c1 | 15 | 50 (≈ 103 µM) | 16 | 50 (≈ 103 µM) | 15 | > 50 |  |  |  |  | < 4.00 | < 4.00 | < 4.00 | < 4.00 | < 4.00 | < 4.00 |  |
| COc1cccc2c1C(=O)c1c(O)c3c(c(O)c1C2=O)C[C@@](O)(C(=O)CO)C[C@@H]3O[C@H]1C[C@H](N)[C@H](O)[C@H](C)O1 [DOXORUBICIN] |  |  |  |  |  |  |  |  |  |  |  | 5.02 |  | 5.73 | 5.51 | 4.89 |  |
| Cn1cc(C(=O)C(=O)NCCc2c[nH]c3ccccc23)c2ccccc21 | 18 | 12.5 (≈ 36.2 µM) | 17 | > 25 | 17 | 25 (≈ 72.4 µM) | 18 | > 25 | 16 | 50 (≈ 145 µM) | < 4.00 | < 4.00 | < 4.00 | < 4.00 | < 4.00 | < 4.00 | Activity (Escherichia coli [9]): 80%; Activity (Pseudomonas putida [10]): 80%; Activity (Bacillus subtilis [11]): >80%; Activity (Staphylococcus aureus [12]): >65%; Stability [13]: Stable; Stability [14]: Stable; Activity (Escherichia coli [16]): Active; Activity (Pseudomonas putida [17]): Active |
| O=C(NCCc1c[nH]c2ccccc12)C(=O)c1c[nH]c2ccccc12 | 15 | 50 (≈ 151 µM) | 14 | 50 (≈ 151 µM) | 14 | 100 (≈ 302 µM) | 15 | 50 (≈ 151 µM) | 15 | 50 (≈ 151 µM) | 4.31 | 4.42 | 4.31 | 4.15 | 4.01 | 4.19 | Activity (PC-3): Active |
| O=C(NCCc1c[nH]c2ccccc12)C(=O)c1cn(Cc2ccc(Cl)cc2)c2ccc(F)cc12 | 14 | 100 (≈ 211 µM) | 14 | 100 (≈ 211 µM) | 12 | > 100 | 13 | > 50 | 13 | 100 (≈ 211 µM) | < 4.00 | < 4.00 | < 4.00 | < 4.00 | < 4.00 | < 4.00 |  |
| CCn1cc(C(=O)C(=O)NCCc2c[nH]c3ccccc23)c2ccccc21 | 14 | > 50 | 12 | > 100 | 13 | > 100 | 14 | 100 (≈ 278 µM) | 14 | 100 (≈ 278 µM) | < 4.00 | < 4.00 | < 4.00 | < 4.00 | < 4.00 | < 4.00 |  |
| COc1ccc2c(C(=O)C(=O)NCCc3c[nH]c4ccccc34)c[nH]c2c1 | 14 | > 50 | 15 | > 50 | 15 | 100 (≈ 277 µM) | 15 | > 100 | 14 | 100 (≈ 277 µM) | < 4.00 | < 4.00 | < 4.00 | < 4.00 | < 4.00 | < 4.00 |  |
| COc1ccc2c(c1)c(C(=O)C(=O)NCCc1c[nH]c3ccccc13)cn2Cc1ccc(Cl)cc1 | 13 | > 100 | 15 | 50 (≈ 103 µM) |  |  |  |  |  |  | < 4.00 | < 4.00 | < 4.00 | < 4.00 | < 4.00 | < 4.00 |  |
| COc1ccc2[nH]cc(C(=O)C(=O)CCCc3c[nH]c4ccccc34)c2c1 | 15 | 100 (≈ 277 µM) | 15 | 100 (≈ 277 µM) | 15 | 50 (≈ 139 µM) |  |  |  |  | < 4.00 | < 4.00 | < 4.00 | < 4.00 | < 4.00 | < 4.00 |  |
| CC(c1c[nH]c(N)n1)c1ccc(O)c2[nH]cc(-c3cnc(-c4c[nH]c5cc(Br)ccc45)c(O)n3)c12.O=C(O)C(F)(F)F (stereo unspecified) [DRAGMACIDINS] |  |  |  |  |  |  |  |  |  |  |  |  |  |  |  |  | MIC (Escherichia coli [18]): 15.6 µg/mL; MIC (Bacillus subtilis [19]): 3.1 µg/mL; MIC (Pseudomonas aeruginosa): 62.5 µg/mL; IC50 (P388): 1.4 µg/mL; IC50 (A549): 4.5 µg/mL |
| O=C1N=C(C(=O)c2c[nH]c3ccc(Br)cc23)N/C1=C\c1c[nH]c2ccccc12 |  |  |  |  |  |  |  |  |  |  |  |  |  |  |  |  | MIC (Micrococcus luteus): 16 µg/mL (≈ 36.9 µM); MIC (Corynebacterium xerosis): 16 µg/mL (≈ 36.9 µM) |
| O=C(NCCc1c[nH]c2ccccc12)C(=O)c1cn(Cc2ccc(Cl)cc2)c2ccccc12 | 18 | 12.5 (≈ 27.4 µM) | 18 | 12.5 (≈ 27.4 µM) | 18 | > 12.5 | 17 | > 25 | 17 | > 25 | < 4.00 | < 4.00 | < 4.00 | < 4.00 | < 4.00 | < 4.00 | Activity (Escherichia coli [9]): 80%; Activity (Pseudomonas putida [10]): 80%; Activity (Bacillus subtilis [11]): >80%; Activity (Staphylococcus aureus [12]): >65%; Stability [13]: Stable; Stability [14]: Stable; Activity (Escherichia coli [16]): Active; Activity (Pseudomonas putida [17]): Active |
| O=C1N=C(C(=O)c2c[nH]c3ccccc23)N/C1=C\c1c[nH]c2cc(O)ccc12 |  |  |  |  |  |  |  |  |  |  |  |  |  |  |  |  | pIC50 [20]: 4.47; pIC50 [21]: 4.70 |
